Values quoted from earlier work, collected in publication PMC2796340 (Journal of the American Chemical Society, 2009).

Biological target: T1, Gal80 (Saccharomyces cerevisiae, UniProt P04387)
T1 sequence (P04387 1-435): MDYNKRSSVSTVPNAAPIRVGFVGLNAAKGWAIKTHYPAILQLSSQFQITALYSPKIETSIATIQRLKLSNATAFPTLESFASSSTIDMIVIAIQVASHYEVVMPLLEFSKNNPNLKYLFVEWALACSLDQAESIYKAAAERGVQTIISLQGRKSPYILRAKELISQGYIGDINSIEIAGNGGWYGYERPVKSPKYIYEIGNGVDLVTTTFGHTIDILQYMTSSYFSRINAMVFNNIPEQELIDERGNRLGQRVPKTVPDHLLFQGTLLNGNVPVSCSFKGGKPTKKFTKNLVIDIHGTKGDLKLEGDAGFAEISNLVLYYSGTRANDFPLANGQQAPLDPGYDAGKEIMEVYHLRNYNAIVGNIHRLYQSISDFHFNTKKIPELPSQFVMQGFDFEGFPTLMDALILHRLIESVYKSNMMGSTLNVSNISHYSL
Details: synthetic Gal4 activation domain peptide; ref [20]

## MDQTAYNAFGITTGMFNTTTMD DVYNYLFDDEDT [Gal4 AD]
  binding to the Gal80 repressor site: binds the Gal80 repressor site with high affinity
